Where two headings read alike, the source gives them in different places.
Assays:
[1] = tested on: M. abscessus ATCC 19977; conditions: positive control, earlier report; cited from earlier work
[2] = tested on: M. abscessus ATCC 19977 (pre-induced); experiment: microbe, parasite or virus in culture; assay type: cell-based, Mycobacterium abscessus; conditions: for Percentage of bacterial growth: clarithromycin 0 μg/ml
Protocol: (§1) The FICI was calculated by summing the FIC of Rfx and the FIC of Clr. FIC of Clr is the MIC of Clr in the presence of Rfx divided by MIC of Clr alone. FIC of Rfx was similarly calculated.
(§2) To characterize the interaction between Clr and Rfx, checkerboard synergy assays were performed on pre-induced Clr-resistant M. abscessus. The fractional inhibitory concentration index (FICI) obtained from the checkerboard assay defines whether the interaction between the two compounds is either synergistic (FICI≤0.5), additive (0.5<FICI≤1.0), indifferent (1.0<FICI≤4.0), or antagonistic (FICI >4.0) (Noel D J, Keevil C W, Wilks S A. 2021. MBio 12).

[3] = tested on: M. abscessus strain M110 (pre-induced); experiment: microbe, parasite or virus in culture; assay type: cell-based, Mycobacterium abscessus
Protocol: as §1, §2

[4] = tested on: M. abscessus strain M422 (pre-induced); experiment: microbe, parasite or virus in culture; assay type: cell-based, Mycobacterium abscessus
Protocol: as §1, §2

[5] = tested on: M. abscessus ATCC 19977, M. abscessus strains M422 and M110; experiment: Checkerboard synergy assay, statements on all 3 M. abscessus strains; assay type: cell-based, Mycobacterium abscessus
Protocol: (§3) For checkerboard synergy assay, 3 M. abscessus strains were used: M. abscessus ATCC 19977, M. abscessus strains M422 and M110, while bactericidal activity determination and the zebrafish study were performed with M. abscessus ATCC 19977. All three strains of M. abscessus harbor the inducible clarithromycin resistance-conferring erm(41) T28 sequevar. M. abscessus strain M422 and M110 were provided by Dr. Jeanette Teo, National University Hospital, Singapore (Chew K L, et al., 2017. J Med Microbiol 66: 1443-1447). M. abscessus ATCC 19977 and M. avium ATCC 700898 were acquired from American Type Culture Collection (ATCC).
(§4) With Rfx identified as the best potentiator of Clr activity, the interaction between Rfx and Clr was investigated by a checkerboard synergy approach using a broth microdilution method performed in 96-well plates. To provide a classification of the combined antibiotics based on the fractional inhibitory concentration index (FICI), this assay applied the combination of Clr and Rfx in concentrations of 0-64 μg/ml by 2-fold serial dilutions along the abscissa and ordinate, respectively. The FICI was calculated by summing the FIC of Rfx and the FIC of Clr. FIC of Clr is the MIC of Clr in the presence of Rfx divided by MIC of Clr alone. FIC of Rfx was similarly calculated.
as §2

[6] = tested on: M. abscessus strain M422; experiment: Single-concentration assay with and without clarithromycin (hit validation); assay type: cell-based, Mycobacterium abscessus
Protocol: as §3
(§5) Primary screening was carried out in 96-well flat-bottom Corning Costar cell culture plates at 50 μM compound along with 4 μg/ml of Clr in a starting inoculum of pre-induced M. abscessus cells at OD600 of 0.005 in a final volume of 100 μl. The plates were put in an airtight container with moist paper towels and incubated for 4 d at 30° C. The cultures in the wells were resuspended before OD600 was read in a BioTek Synergy 4 plate reader.
To start the validation process, the top 10 compounds with >90% growth inhibition were chose to perform a single-concentration assay, with and without clarithromycin. Finally, the inventors obtained 7 compounds that potentiated Clr efficacy.

[7] = tested on: M. abscessus ATCC 19977; experiment: Zebrafish embryo infection model; assay type: in vivo, zebrafish (Denio rerio); conditions: 19.6 μg/ml Rfx alone, immersion for 4 days
Excerpt: To visualize the bacterial infection in the zebrafish (Denio rerio), a fluorescent strain of M. abscessus ATCC 19977 containing pJKD2893:mScarlet was generated. The pJKD2893 plasmid backbone was a kind gift from Professor Timothy Stinear. The gene expressing the fluorescent protein mScarlet was amplified from μMRE135-mScarlet (Addgene #118489, Mitja Remus-Emsermann lab). The amplification product was annealed by Gibson cloning with the pJKD2893 backbone amplified from a sample of pJKD2893. The resulting plasmid, termed pJKD2893:mScarlet, was electroporated into M. abscessus ATCC 19977 at a culture density equivalent to OD600˜20 using a BioRad GenePulser Xcell set at 2.5 kV, 25 uF, and 1,000Ω. […] Colonies carrying the plasmid were identified by their fluorescence. […]
Preparation of M. abscessus Inoculum and Zebrafish Infections Cultures of M. abscessus-pJKD2893:mScarlet in 7H9 media supplemented with 50 μg/ml kanamycin were grown to OD600 of 0.2-0.3 and concentrated to OD600 of 1 in 0.1% PBS-Tween-20. […] The actual CFU in the inoculum was determined a posteriori by injecting into 50 μl 0.1% PBS-Tween-20 and streaking on a plate. […]
Larvae were harvested to assess the bacterial load at 5 d post-infection using a slightly modified version of the Kremer lab method (Bernut et al., Antimicrob Agents Chemother 58: 4054-4063). […] Fluorescent colonies were counted after 5-6 days. […]

[8] = tested on: M. avium ATCC 700898 (uninduced); experiment: Checkerboard synergy assay; assay type: cell-based, Mycobacterium avium; conditions: for MIC90: Mycobacterium avium, ATCC700898
Protocol: as §4
As both M. abscessus and M. avium are the main organism groups causing pulmonary NTM (Lim A Y H, et al., 2018. BMC Pulm Med 18 (1):85; Tan Y, et al., 2018. BMC Pulm Med 18 (1): 168), the inventors tested the combination of Clr and Rfx against M. avium in the checkerboard assay as well. With a FICI of 0.563, the interaction between Clr and Rfx was additive in M. avium.

[9] = tested on: M. abscessus strain M422; experiment: Primary compound screening against pre-induced bacterial cells; assay type: cell-based, Mycobacterium abscessus; conditions: 50 μM compound with 4 μg/ml Clr
Protocol: A total of 2,252 drugs/compounds comprising 1,576 FDA-approved drugs and 676 clinical compounds were purchased from MedChemExpress. The compounds were dissolved in dimethyl sulfoxide (DMSO) to a stock concentration of 10 mM. The Clr resistance in M. abscessus was induced for 3 days under 0.5 μg/ml of Clr before being subjected to compound screening.
as §5
A compound library consisting of 2,252 FDA-approved and clinical-stage drugs was screened against M. abscessus clinical strain M422. Bacteria were exposed to a sub-inhibitory concentration of Clr (0.5 μg/ml) for 3 days to induce Clr resistance. The test drugs were screened at 50 μM in the presence of 4 μg/ml of Clr to maintain the Clr-resistance phenotype.

[10] = Mycobacteroides abscessus, alone, read-out: MIC90 Rfx individually

**Q.** For COc1nc2ccc(Br)cc2cc1[C@@H](c1ccccc1)[C@@](O)(CCN(C)C)c1cccc2ccccc12 [Bedaquiline], which “efficacy against M. abscessus in zebrafish embryos” value [1] is on record?
**A.** demonstrated efficacy

**Q.** For CO[C@H]1/C=C/O[C@@]2(C)Oc3c(C)c(O)c4c(O)c(c5c(nc6cc(C)ccn65)c4c3C2=O)NC(=O)/C(C)=C\C=C\[C@H](C)[C@H](O)[C@@H](C)[C@@H](O)[C@@H](C)[C@H](OC(C)=O)[C@@H]1C [Rifaximin, rifaximin], which MIC90 ([2]; Mycobacteroides abscessus, ATCC19977, read-out: MIC90 Rfx individually) is on record?
**A.** 128 mg/L

**Q.** And the “MIC90 Rfx in combination” value ([2]; in combination with Clr)?
**A.** 4 mg/L

**Q.** What about the “MIC90 Rfx in combination” value [3] of the same compound?
**A.** 4 mg/L

**Q.** What about the MIC90 [3, 10] of the same compound?
**A.** 128 mg/L

**Q.** And the “MIC90 Rfx in combination” value [4]?
**A.** 1 mg/L

**Q.** What about the MIC90 [4, 10] of the same compound?
**A.** 16 mg/L

**Q.** And the “concentration at which significant synergistic effects with clarithromycin are shown” value ([5]; Table 2)?
**A.** ≥ 1 µg/mL

**Q.** What about the “MIC of Rfx” value ([5]; tested alone) of the same compound?
**A.** extremely high

**Q.** What about the “% inhibition with 0.5 μg/ml Clr” value ([6]; compound combined with clarithromycin) of the same compound?
**A.** 100%

**Q.** What about the “% inhibition with compound alone” value ([6]; without clarithromycin) of the same compound?
**A.** 85.6%

**Q.** And the CFU reduction [7]?
**A.** did not show any CFU reduction

**Q.** And the MIC90 ([8]; alone, read-out: MIC90 Rfx individually)?
**A.** 0.03 mg/L

**Q.** What about the MIC90 ([8]; read-out: MIC90) of the same compound?
**A.** < 0.1 mg/L

**Q.** And the “MIC90 Rfx in combination” value ([8]; in combination with Clr)?
**A.** 0.015 mg/L

**Q.** What does the source list for CO[C@H]1/C=C/O[C@@]2(C)Oc3c(C)c(O)c4c(c3C2=O)C2=NC3(CCN(CC(C)C)CC3)NC2=C(NC(=O)/C(C)=C\C=C\[C@H](C)[C@H](O)[C@@H](C)[C@@H](O)[C@@H](C)[C@H](OC(C)=O)[C@@H]1C)C4=O [rifabutin]?
**A.** Percentage of bacterial growth ([2]; partner antibiotic 1 μg/ml): 105.5%; Percentage of bacterial growth ([2]; partner antibiotic 2 μg/ml): 101.8%; Percentage of bacterial growth ([2]; partner antibiotic 4 μg/ml): 99.4%; Percentage of bacterial growth ([2]; partner antibiotic 8 μg/ml): 100.2%; Percentage of bacterial growth ([2]; partner antibiotic 16 μg/ml): 79.1%; Percentage of bacterial growth ([2]; partner antibiotic 32 μg/ml): 9.2%; Percentage of bacterial growth ([2]; partner antibiotic 64 μg/ml): 1.2%; hit status in primary screening [9]: one of the top hits
